Test results published in the kinase profiling compilation of Christmann-Franck et al. (2016).

How the values were obtained:
Assay in all cases: KINOMEscan competition binding
Details in all cases: compound 0.1 µM
[1] = target: CDK5 (human) (UniProt Q00535)
[2] = target: IRAK4 (human) (UniProt Q9NWZ3)
[3] = target: GRK7 (human) (UniProt Q8WTQ7)
[4] = target: FLT4 (human) (UniProt P35916)
[5] = target: ACVR1B (human) (UniProt P36896)
[6] = target: PAK6 (human) (UniProt Q9NQU5)
[7] = target: MAP3K4 (human) (UniProt Q9Y6R4)
[8] = target: TSSK1B (human) (UniProt Q9BXA7)
[9] = target: PRKG1 (human) (UniProt Q13976)
[10] = test system: KIT (human), P10721 [D816V]
[11] = target: PI4KB (human) (UniProt Q9UBF8)
[12] = target: PRKAA2 (human) (UniProt P54646)
[13] = target: ULK2 (human) (UniProt Q8IYT8)
[14] = target: PIK3CG (human) (UniProt P48736)
[15] = target: IKBKE (human) (UniProt Q14164)
[16] = target: GAK (human) (UniProt O14976)
[17] = target: JAK1 JH1 catalytic (human) (UniProt P23458)
[18] = target: RPS6KA3 KD1 (human) (UniProt P51812)
[19] = target: CAMK4 (human) (UniProt Q16566)
[20] = target: DAPK1 (human) (UniProt P53355)
[21] = target: RIOK2 (human) (UniProt Q9BVS4)
[22] = target: CAMK1D (human) (UniProt Q8IU85)
[23] = target: ACVR2A (human) (UniProt P27037)
[24] = target: ERN1 (human) (UniProt O75460)
[25] = target: CSNK1D (human) (UniProt P48730)
[26] = target: CaMK1 (human) (UniProt Q14012)
[27] = target: JAK3 JH1 catalytic (human) (UniProt P52333)
[28] = target: RPS6KA1 KD2 (human) (UniProt Q15418)
[29] = target: PRKD2 (human) (UniProt Q9BZL6)
[30] = target: AURKB (human) (UniProt Q96GD4)
[31] = target: CDK18 (human) (UniProt Q07002)
[32] = target: RPS6KA2 KD1 (human) (UniProt Q15349)
[33] = target: SIK2 (human) (UniProt Q9H0K1)
[34] = target: MAPK10 (human) (UniProt P53779)
[35] = target: ZAP70 (human) (UniProt P43403)
[36] = target: SYK (human) (UniProt P43405)
[37] = target: PRKCI (human) (UniProt P41743)
[38] = target: CDK15 (human) (UniProt Q96Q40)
[39] = target: CDK17 (human) (UniProt Q00537)
[40] = target: CDK2 (human) (UniProt P24941)

Measured: kinase still bound, per cent of control

Chain of ACVR1B (human) (P36896 whole entry, looked up): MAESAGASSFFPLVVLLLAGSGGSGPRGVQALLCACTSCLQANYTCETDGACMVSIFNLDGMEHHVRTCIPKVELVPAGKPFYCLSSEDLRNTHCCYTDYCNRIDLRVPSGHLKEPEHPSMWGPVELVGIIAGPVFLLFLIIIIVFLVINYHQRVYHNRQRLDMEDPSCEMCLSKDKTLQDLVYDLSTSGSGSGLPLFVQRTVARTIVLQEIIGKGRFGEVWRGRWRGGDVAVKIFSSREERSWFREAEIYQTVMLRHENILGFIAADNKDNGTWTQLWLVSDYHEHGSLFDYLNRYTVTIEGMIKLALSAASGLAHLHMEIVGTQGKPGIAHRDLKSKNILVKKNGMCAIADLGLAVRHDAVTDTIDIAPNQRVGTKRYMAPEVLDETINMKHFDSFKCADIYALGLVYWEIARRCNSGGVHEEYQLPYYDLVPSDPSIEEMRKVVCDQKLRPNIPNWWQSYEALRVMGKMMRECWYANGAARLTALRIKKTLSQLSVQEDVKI
Chain of PI4KB (human) (Q9UBF8 whole entry, looked up): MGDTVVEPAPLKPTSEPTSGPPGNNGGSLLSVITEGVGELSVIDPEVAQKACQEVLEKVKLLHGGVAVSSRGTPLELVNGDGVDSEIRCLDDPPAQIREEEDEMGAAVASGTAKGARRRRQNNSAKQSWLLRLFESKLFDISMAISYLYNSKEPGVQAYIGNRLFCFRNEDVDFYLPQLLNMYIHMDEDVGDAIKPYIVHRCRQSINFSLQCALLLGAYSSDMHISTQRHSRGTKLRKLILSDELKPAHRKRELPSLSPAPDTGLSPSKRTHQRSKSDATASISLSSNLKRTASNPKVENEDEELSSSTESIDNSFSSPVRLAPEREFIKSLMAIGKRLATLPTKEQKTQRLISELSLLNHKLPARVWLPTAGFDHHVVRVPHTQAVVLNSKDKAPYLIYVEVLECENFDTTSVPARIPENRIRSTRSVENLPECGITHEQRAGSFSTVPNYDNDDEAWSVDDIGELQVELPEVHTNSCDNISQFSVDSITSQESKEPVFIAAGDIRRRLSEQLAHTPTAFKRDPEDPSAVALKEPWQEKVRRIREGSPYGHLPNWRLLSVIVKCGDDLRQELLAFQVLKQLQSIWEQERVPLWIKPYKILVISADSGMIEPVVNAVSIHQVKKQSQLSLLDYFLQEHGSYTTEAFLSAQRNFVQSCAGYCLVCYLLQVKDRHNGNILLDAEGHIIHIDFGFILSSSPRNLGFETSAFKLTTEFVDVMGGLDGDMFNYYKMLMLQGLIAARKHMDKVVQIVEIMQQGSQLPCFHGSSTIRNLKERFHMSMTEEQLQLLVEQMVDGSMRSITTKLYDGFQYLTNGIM
Chain of TSSK1B (human) (Q9BXA7 whole entry, looked up): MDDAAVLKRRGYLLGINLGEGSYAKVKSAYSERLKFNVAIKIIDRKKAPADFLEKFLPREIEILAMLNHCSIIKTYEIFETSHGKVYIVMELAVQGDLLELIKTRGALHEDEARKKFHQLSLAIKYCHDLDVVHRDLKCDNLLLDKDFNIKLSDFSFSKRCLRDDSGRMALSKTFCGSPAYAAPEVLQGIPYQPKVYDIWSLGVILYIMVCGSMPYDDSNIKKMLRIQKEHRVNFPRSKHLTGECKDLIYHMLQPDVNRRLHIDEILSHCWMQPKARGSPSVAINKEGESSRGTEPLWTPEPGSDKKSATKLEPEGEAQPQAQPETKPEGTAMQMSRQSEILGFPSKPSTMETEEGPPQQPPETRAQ
Chain of AURKB (human) (Q96GD4 whole entry, looked up): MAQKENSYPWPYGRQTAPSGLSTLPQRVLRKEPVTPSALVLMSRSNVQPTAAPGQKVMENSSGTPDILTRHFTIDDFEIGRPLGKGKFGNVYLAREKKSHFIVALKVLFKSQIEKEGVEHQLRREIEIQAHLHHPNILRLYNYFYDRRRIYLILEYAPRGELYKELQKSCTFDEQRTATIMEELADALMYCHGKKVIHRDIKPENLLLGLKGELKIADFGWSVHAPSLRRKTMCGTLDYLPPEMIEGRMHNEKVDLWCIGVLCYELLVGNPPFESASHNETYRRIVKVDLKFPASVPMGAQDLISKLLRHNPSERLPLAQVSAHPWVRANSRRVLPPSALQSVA
Chain of JAK1 JH1 catalytic (human) (P23458 whole entry, looked up): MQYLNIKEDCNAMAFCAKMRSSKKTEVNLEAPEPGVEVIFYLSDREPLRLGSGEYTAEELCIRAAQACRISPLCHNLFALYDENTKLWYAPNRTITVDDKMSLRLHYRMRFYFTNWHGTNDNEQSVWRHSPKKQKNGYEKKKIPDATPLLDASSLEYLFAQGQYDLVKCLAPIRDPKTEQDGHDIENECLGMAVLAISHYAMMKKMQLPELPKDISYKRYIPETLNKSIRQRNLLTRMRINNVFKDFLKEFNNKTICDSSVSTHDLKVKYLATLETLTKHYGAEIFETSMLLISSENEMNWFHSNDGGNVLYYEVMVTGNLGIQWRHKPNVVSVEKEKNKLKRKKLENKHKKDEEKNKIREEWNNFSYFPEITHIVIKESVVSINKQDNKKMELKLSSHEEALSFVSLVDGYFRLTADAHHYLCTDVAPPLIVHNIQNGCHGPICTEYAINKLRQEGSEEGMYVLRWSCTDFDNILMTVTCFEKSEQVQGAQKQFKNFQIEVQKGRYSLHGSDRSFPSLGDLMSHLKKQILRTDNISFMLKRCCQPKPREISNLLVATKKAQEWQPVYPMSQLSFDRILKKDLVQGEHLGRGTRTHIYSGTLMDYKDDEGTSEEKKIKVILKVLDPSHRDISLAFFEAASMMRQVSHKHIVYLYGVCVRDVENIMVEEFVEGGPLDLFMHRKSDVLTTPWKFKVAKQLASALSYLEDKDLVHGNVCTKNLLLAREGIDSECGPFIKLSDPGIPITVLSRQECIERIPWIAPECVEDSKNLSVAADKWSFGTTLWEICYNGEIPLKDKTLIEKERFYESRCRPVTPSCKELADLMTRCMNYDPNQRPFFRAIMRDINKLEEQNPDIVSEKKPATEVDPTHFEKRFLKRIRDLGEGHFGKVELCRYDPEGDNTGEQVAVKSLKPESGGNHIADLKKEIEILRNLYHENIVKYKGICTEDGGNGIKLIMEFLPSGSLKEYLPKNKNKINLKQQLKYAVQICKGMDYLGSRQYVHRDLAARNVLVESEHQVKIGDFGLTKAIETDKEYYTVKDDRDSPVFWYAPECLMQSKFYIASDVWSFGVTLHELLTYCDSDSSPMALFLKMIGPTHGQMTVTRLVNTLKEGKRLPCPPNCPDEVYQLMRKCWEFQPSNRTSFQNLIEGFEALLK
Chain of ZAP70 (human) (P43403 whole entry, looked up): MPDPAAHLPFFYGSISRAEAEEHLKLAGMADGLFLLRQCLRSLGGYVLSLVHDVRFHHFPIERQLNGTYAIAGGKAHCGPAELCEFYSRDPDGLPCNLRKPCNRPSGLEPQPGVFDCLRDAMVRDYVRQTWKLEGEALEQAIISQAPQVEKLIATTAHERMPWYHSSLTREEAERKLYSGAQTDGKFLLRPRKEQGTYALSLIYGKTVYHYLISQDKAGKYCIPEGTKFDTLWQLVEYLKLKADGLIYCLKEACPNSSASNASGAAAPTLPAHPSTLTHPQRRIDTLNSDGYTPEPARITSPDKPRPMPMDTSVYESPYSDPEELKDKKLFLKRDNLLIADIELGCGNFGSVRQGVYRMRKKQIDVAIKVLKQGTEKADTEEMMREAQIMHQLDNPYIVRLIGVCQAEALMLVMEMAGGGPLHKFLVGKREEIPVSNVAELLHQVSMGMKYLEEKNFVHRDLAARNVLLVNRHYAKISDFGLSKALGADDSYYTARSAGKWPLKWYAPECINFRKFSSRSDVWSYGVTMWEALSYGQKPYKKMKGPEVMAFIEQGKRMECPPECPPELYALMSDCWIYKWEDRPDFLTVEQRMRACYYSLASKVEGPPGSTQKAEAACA
Chain of RPS6KA1 KD2 (human) (Q15418 whole entry, looked up): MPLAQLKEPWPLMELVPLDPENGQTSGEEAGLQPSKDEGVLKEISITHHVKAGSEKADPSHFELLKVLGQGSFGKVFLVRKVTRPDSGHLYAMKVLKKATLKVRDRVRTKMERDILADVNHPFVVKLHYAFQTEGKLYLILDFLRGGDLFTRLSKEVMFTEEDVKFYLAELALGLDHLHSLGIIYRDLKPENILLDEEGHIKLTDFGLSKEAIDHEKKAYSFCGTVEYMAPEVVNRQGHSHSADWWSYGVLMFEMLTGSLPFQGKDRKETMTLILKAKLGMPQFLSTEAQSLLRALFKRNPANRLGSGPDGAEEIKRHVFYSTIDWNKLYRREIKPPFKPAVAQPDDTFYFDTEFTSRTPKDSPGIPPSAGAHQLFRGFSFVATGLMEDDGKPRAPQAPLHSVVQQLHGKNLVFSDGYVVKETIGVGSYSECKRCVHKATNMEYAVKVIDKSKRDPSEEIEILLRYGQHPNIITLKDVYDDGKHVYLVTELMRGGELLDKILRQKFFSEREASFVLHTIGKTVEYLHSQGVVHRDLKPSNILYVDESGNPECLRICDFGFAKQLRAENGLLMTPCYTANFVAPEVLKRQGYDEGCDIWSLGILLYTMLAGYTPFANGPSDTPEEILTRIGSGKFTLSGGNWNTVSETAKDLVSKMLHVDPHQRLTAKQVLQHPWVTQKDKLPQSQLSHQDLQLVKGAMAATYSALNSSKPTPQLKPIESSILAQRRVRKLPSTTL
Chain of CaMK1 (human) (Q14012 whole entry, looked up): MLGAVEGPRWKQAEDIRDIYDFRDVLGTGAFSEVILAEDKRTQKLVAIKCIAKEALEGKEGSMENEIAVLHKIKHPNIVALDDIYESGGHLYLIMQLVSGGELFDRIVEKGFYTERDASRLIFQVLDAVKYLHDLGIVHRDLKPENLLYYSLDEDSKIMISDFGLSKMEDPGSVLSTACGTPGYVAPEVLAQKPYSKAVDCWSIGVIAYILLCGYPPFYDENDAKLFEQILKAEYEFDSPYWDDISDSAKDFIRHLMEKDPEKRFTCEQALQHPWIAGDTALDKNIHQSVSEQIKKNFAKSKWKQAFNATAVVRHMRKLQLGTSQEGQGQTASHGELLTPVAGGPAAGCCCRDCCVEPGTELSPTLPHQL

CCc1ccc(C(=O)Nc2cc(CN3CCN(C)CC3)cc(C(F)(F)F)c2)cc1C#Cc1cnc2ccnn2c1
99%: [9]
86%: [13]
83%: [36]
85%: [4]
58%: [27]
78%: [32]
100%: [1] | [2] | [3] | [5] | [7] | [11] | [12] | [14] | [15] | [17] | [18] | [19] | [20] | [21] | [24] | [28] | [29] | [30] | [31] | [33] | [34] | [35] | [37] | [38] | [39]
75%: [26]
97%: [23]
84%: [22] | [40]
81%: [6] | [10]
95%: [8] | [16]
77%: [25]
